Here are results for two compounds from patent US7576128B2 (priority 2004, dated 2009).

One assay has as its system male Syrian hamsters. The assay is described as follows: Animal model for inhibition of sebum production (hamster ear, HPLC of sebum components). Conditions: for % Reduction in CE: cholesterol ester; for % Reduction in CE / % Reduction in WE: 3 w/v% topical twice daily, five days a week, 4 weeks, difference from vehicle control; for Sum CE + WE: summation of CE and WE reductions; for % Reduction in WE: wax ester. The format is in vivo. As for the experimental part: Luderschmidt et al describes an animal model for testing whether compounds are capable of modulating sebum secretion. Arch. Derm. Res. 258, 185-191 (1977). This model uses male Syrian hamsters, whose ears contain sebaceous glands. Selected compounds produced above were screened in this model.
Testing for sebum inhibition was carried out in the following manner. Male Syrian hamsters aged 9 to 10 weeks were introduced into the laboratory environment and acclimated for 2 weeks prior to use in the study. Each group consisted of 5 animals and were run in parallel with vehicle and positive controls. Prior to administration, 30mg of each compound was dissolved in 1 mL of Universal solvent (ethanol/propylene glycol (70/30%v/v) to achieve a final concentration of 3 w/v%.
Animals were dosed topically twice daily, five days a week, for 4 weeks. Each dose consisted of 25 micro liters of vehicle control or drug. The dose was applied to the ventral surfaces of both the right and left ears. All animals were sacrificed approximately 18-24 hours after the final dose. The right ears were collected from each animal and used for sebum analysis.
The ears were prepped for HPLC analysis in the following manner. One 8mm distal biopsy punch was taken, just above the anatomical “V” mark in the ear to normalize the sample area. The punch was pulled apart. The ventral biopsy surface (the area where the topical dose was directly applied to the sebaceous glands) was retained for testing and the dorsal surface of the biopsy punch was discarded.
HPLC analysis was carried out on an extract of the tissue sample. Tissue samples were contacted with 3ml of solvent (a 4:1 admixture of 2,2,4-trimethylpentane and isopropyl alcohol). The mixture was shaken for 15 minutes and stored overnight at room temperature, protected from light. The next morning 1 milliliter of water was added to the sample and shaken for 15 minutes. The sample was then centrifuged at approximately 1500 rpm for 15 minutes. Two ml of the organic phase (top layer) was transferred to a glass vial, dried at 37° C., under nitrogen, for approximately 1 hour, and then lyophilized for approximately 48 hours. The samples were then removed from the lyophilizer and each vial was reconstituted with 600 μl of solvent A (trimethylpentane/tetrahydrofuran (99:1). The samples were then recapped and vortexed for 5 minutes.
The results are reported as the reduction in cholesterol ester (CE) and wax ester (WE) production, when compared to the vehicle control.
Columns 1 and 2 identify the compound by structure and Example number. Columns 3 through 5 show the effect the compounds had on the -reduction of sebum components (CE and WE). The results are expressed as the difference from the vehicle control. A positive number reflects a decrease in the production of the sebum component being measured, i.e. cholesterol ester (CE) or wax ester (WE).

In the next assay the test system is Male C3H/HeN mice. Nature of the assay: Modified telogen conversion assay (hair growth, induction of anagen). The format is in vivo. Conditions: topical twice daily for 4 weeks. An excerpt:
It has been discovered that male C3H/HeN mice may be used in the telogen conversion assay, when evaluating anti-androgen test compounds. Thus, the model relates to a modification of the existing telogen conversion assay. Male C3H/HeN mice approximately 7 weeks old are utilized. These animals are also uniformly in telogen, like their female counterparts. However, once shaven, the androgens inherently present in these male mice inhibit the conversion of the hair follicles to the anagen phase. An anti-androgen will block this androgenic effect and the follicles will convert to anagen, like their female counterparts.
Male C3H/HeN mice, 6 to 7 weeks old (Charles River Laboratories, Raleigh, N.C.) were used for the study. Fur was clipped from the dorsal region of the mice prior to initiation of the study. Only mice with pink skin, a visual indication of the telogen phase, were selected for inclusion in the study.
The test compound was dissolved in a vehicle consisting of propylene glycol (30%) and ethanol (70%) to achieve a concentration of either 0.2% w/v, 0.5% w/v, 1% w/v or 3% w/v. The relevant dose was applied topically to the clipped dorsal region of the mice in one test group (7-10 mice) in a volume of 20 μl/cm^2. A third group of animals received only the vehicle to serve as a control. Treatments were applied twice daily for 4 weeks.
The treatment area was observed and graded every other day for signs of hair growth. The hair growth response was quantified by recording, for each animal, the day on which signs of hair growth first appeared over the treated area. The first sign of anagen was the darkening of skin color as melanocytes in the follicles started to synthesize melanin in preparation for the production of pigmented hairs. […] The percentage of mice showing signs of hair growth in both the treatment group and the control group is graphically depicted in FIG. 1.

Consider `CCCCC(COc1ccc(C#N)c(C(F)(F)F)c1)C(C)O` (centres unmarked) [Example 15, 4-[2-(1-Hydroxy-ethyl)-hexyloxy]-2-tri-fluoromethyl-benzonitrile], for which, in the assay with male Syrian hamsters, the “% Reduction in CE” value stood at 54%, the “Sum CE + WE” value was 128% and the “% Reduction in WE” value is recorded as 74%.
Consider `C[C@H](O)CC[C@H](C)Oc1ccc(C#N)c(C(F)(F)F)c1` [Example 23, (1S,4S)-4-(4-Hy-droxy-1-methylpentyl-oxy)-2-tri-fluoromethyl-benzonitrile], for which the “rate of hair growth versus vehicle control group” value with Male C3H/HeN mice (5% test group) is given as “did not exceed that of the vehicle control group”. In the assay with Male C3H/HeN mice (concentration of 1%), the “hair growth (induction of anagen)” value is “produced substantial hair growth”. In addition, in the assay with male Syrian hamsters, the “% Reduction in CE” value was found to be 67%, the “Sum CE + WE” value is listed as 154% and the “% Reduction in WE” value amounted to 87%.
